Measured values as given in US12325726B2, “Organic compounds” (priority 2018, dated 2025).
Like-named read-outs stand apart in the source and are kept apart here.

Legend:
GABAA receptor = assay: [35S]-TBPS binding inhibition (in vitro potency); details: inhibition of specific binding of [35S]-TBPS
Experimental: (§1) In vitro potency [ability to inhibit the binding of [^35S]-tert-butylbicyclophosphorothionate (TBPS)], rotorod TD50's (dose at which half of animals tested fail to stay on a rotating rod for 1 minute) and the length of time before animals tested are able to pass rotorod test (duration of action) of 3α-Hydroxy-21-(1′-imidazolyl)-3β-methoxymethyl-5α-pregnan-20-one is determined. These methods for measuring in vitro and in vivo activity of compounds of the invention are fully described in U.S. Pat. No. 5,232,917, incorporated herein by reference in its entirety. The TBPS assay gives the in vitro potency of compounds whereas the rotorod assay estimates the sedative/hypnotic activity of compounds. Since the duration of action of a compound is dependent on the dose and will be prolonged at higher doses, the duration of action is measured at the lowest dose at which all of the animals failed the rotorod test. IC50 is the dose of steroid inhibiting 50% of specific binding of [^35S]-tert-butylbicyclophorothionate (TBPS). Rotorod TD50 is the does at which half of animals fail the rotorod test in rat. Duration of action, measured at the lowest dose where all animals failed the rotorod test, is the time required for all animals tested to once again pass the rotorod test.

rat = assay: Rotorod test (sedative/hypnotic activity, duration of action); type: in vivo
Experimental: as §1

[1] = In vivo mouse pharmacokinetics, paired oral co-dosing, plasma and brain; design: species or system mice; details: 10 mg/kg po co-dosed; for AUC: 0.25-6 hr sampling
Experimental: In a first study, the compounds of Examples 2 to 6 are compared to the Compound of Formula A (Example 1) using standard procedures in mice. In each test, two compounds are co-dosed in a single animal and the relative pharmacokinetics in plasma and brain is determined. Each test compound is dissolved in polyethylene glycol 400 vehicle, and administered orally at a dose of 10 mg/kg. After single dose oral administration of the test compounds together, plasma and brain levels are measured at 0.25, 0.5, 1, 2, 4, and 6 hours post-dosing. The mean values for maximum concentration, time to maximum concentration, and Area Under the Curve (AUC) for both compounds are determined. The results are summarized in the tables below for various paired co-dosing experiments: […]

human hepatocyte = assay: In vitro human hepatocyte stability assay; type: in vitro ADME; details: human hepatocytes
Experimental: The compounds of Examples 1, 2, 5 and 6 are compared in a standard in vitro human hepatocyte stability assay run in duplicate. Compounds are provided as 1 M solutions in DMSO, and concentration of test compound is determined at 0.5, 1.0 and 4.0 hours after addition of the test compound. Results are shown below as a percentage of initial concentration.

[2] = cited from earlier work
[3] = brain, read-out: Brain concentration
[4] = plasma, read-out: Plasma concentration

COC[C@@]1(O)CC[C@@]2(C)[C@@H](CC[C@@H]3[C@@H]2CC[C@]2(C)[C@@H](C(=O)Cn4ccnc4)CC[C@@H]32)C1 [Example 1, 3α-Hydroxy-21-(1′-imidazolyl)-3β-methoxymethyl-5α-pregnan-20-one]
IC50 (GABAA receptor): 138 nM | TD50 (rat; Rattus norvegicus, po, read-out: rotorod TD50 (po)): 28 mg/kg | duration of action (rat; at lowest dose where all animals failed the rotorod test, time until all pass again): 140 min | Cmax ([1]; brain): 2880 ng/g | Tmax ([1]; brain): 1 h | AUC ([1]; brain): 14200 ng·h/mL | concentration at 0.25 hr [1, 3]: 2280 ng/g | concentration at 0.5 hr [1, 3]: 2230 ng/g | concentration at 1 hr [1, 3]: 2880 ng/g | concentration at 2 hr [1, 3]: 2520 ng/g | concentration at 4 hr [1, 3]: 2360 ng/g | concentration at 6 hr [1, 3]: 2090 ng/g | Kp ([1]; brain/plasma, read-out: B/P AUC Ratio): 1.2 | Cmax ([1]; plasma): 2580 ng/mL | Tmax ([1]; plasma): 1 h | AUC ([1]; plasma): 11700 ng·h/mL | concentration at 0.25 hr [1, 4]: 2270 ng/mL | concentration at 0.5 hr [1, 4]: 1820 ng/mL | concentration at 1 hr [1, 4]: 2580 ng/mL | concentration at 2 hr [1, 4]: 2100 ng/mL | concentration at 4 hr [1, 4]: 1840 ng/mL | concentration at 6 hr [1, 4]: 1750 ng/mL | percentage of initial concentration (human hepatocyte; 0 hr): 100% | percentage of initial concentration (human hepatocyte; 0.5 hr): 94% | percentage of initial concentration (human hepatocyte; 1.0 hr): 90% | percentage of initial concentration (human hepatocyte; 4.0 hr): 78% | AUC (0-24) ([2]; human, oral 1 mg fasted, mean): 16.9 ng·h/mL | AUC (0-last) ([2]; human, oral 1 mg fasted, mean): 22.4 ng·h/mL | Cmax ([2]; human, oral 1 mg fasted, mean): 1.3 ng/mL | T1/2 ([2]; human, oral 1 mg fasted, mean): 13.8 h | Tmax ([2]; human, oral 1 mg fasted, mean): 3.1 h | AUC (0-24) ([2]; human, oral 3 mg fasted, mean): 54.6 ng·h/mL | AUC (0-last) ([2]; human, oral 3 mg fasted, mean): 65.6 ng·h/mL | Cmax ([2]; human, oral 3 mg fasted, mean): 5.7 ng/mL | T1/2 ([2]; human, oral 3 mg fasted, mean): 8.8 h | Tmax ([2]; human, oral 3 mg fasted, mean): 2.8 h | AUC (0-24) ([2]; human, oral 10 mg fasted, mean): 213 ng·h/mL | AUC (0-last) ([2]; human, oral 10 mg fasted, mean): 254 ng·h/mL | Cmax ([2]; human, oral 10 mg fasted, mean): 26.5 ng/mL | T1/2 ([2]; human, oral 10 mg fasted, mean): 13.1 h | Tmax ([2]; human, oral 10 mg fasted, mean): 1.7 h | AUC (0-24) ([2]; human, oral 30 mg fasted, mean): 952 ng·h/mL | AUC (0-last) ([2]; human, oral 30 mg fasted, mean): 1117 ng·h/mL | Cmax ([2]; human, oral 30 mg fasted, mean): 120 ng/mL | T1/2 ([2]; human, oral 30 mg fasted, mean): 13.1 h | Tmax ([2]; human, oral 30 mg fasted, mean): 2.1 h | AUC (0-24) ([2]; human, oral 60 mg fasted, mean): 2330 ng·h/mL | AUC (0-last) ([2]; human, oral 60 mg fasted, mean): 2608 ng·h/mL | Cmax ([2]; human, oral 60 mg fasted, mean): 330 ng/mL | T1/2 ([2]; human, oral 60 mg fasted, mean): 12.5 h | Tmax ([2]; human, oral 60 mg fasted, mean): 1.8 h | T1/2 ([2]; humans, oral dosing, average across five dosing groups): approximately 12 hours
